Where two headings read alike, the source gives them in different places. One block for each compound: values may come before it.
Target: recombinant human GST-Syk (Homo sapiens (Human), UniProt P43405)
Assay: Homogeneous Time-Resolved Fluorescence (HTRF) assay for the recombinant human Syk enzyme
Assay type: biochemical
Conditions: recombinant human GST-Syk 5 pM, ATP 25 μM
Method: Homogeneous Time-Resolved Fluorescence (HTRF) Assay for the Recombinant Human Syk Enzyme:
A recombinant GST-hSyk fusion protein was used to measure potency of compounds to inhibit human Syk activity. The recombinant human GST-Syk ([…] #08-176) (5 pM final concentration) was incubated with various concentrations of the inhibitor diluted in DMSO (0.1% final concentration) for 10 minutes at room temperature in 15 mM Tris-HCl (pH 7.5), 0.01% tween 20, 2 mM DTT in 384 well plate format. To initiate the reaction the biotinylated substrate peptide (250 nM final concentration) that contains the phosphorylation site for Syk was added with magnesium (5 mM final concentration) and ATP (25 μM final concentration). Final volume of the reaction was 10 μL. Phosphorylation of the peptide was allowed to proceed for 45 minutes at room temperature. To quench the reaction and detect the phosphorylated product, 2 nM of a Europium-anti-phosphotyrosine antibody (Perkin Elmer #AD0161) and 70 nM SA-APC (Perkin-Elmer #CR130-100) were added together in 15 mM Tris pH 7.5, 40 mM EDTA, 0.01% tween 20. Final volume of the quenching solution was 10 μL. The resulting HTRF signal was measured after 30 minutes on an EnVision (Perkin-Elmer) reader using a time-resolved fluorescence protocol.

[1] = class symbols, read-out: rhSyk activity (IC50)
[2] = 10-dose titration, read-out: rhSyk (nM) IC50

SMILES: CCCCOC(=O)[C@H]1CC[C@H]([C@@](C)(O)c2ncc(-c3cc(C)cc(Nc4cc(C)c(F)cn4)n3)s2)CC1 (single isomer, unassigned) [Example 9, Enantiomer 1, butyl trans-4-[1-(5-{6-[(5-fluoro-4-methylpyridine-2-yl)amino]-4-methylpyridine-2-yl}-1,3-thiazol-2-yl)-1-hydroxyethyl]cyclohexanecarboxylate]
IC50 [2]: 278 nM | IC50 [1]: 100 to 1000 nM

SMILES: Cc1ccnc(Nc2cc(C)cc(-c3cnc(C(C)(O)[C@H]4CC[C@H](C(=O)O)CC4)s3)n2)c1 (relative stereo) [Example 14-1, trans-4-[1-hydroxy-1-(5-{4-methyl-6-[(4-methylpyridin-2-yl)amino]pyridin-2-yl}-1,3-thiazol-2-yl)ethyl]cyclohexanecarboxylic acid]
IC50 [1]: ≤ 100 nM

SMILES: Cc1ccnc(Nc2cccc(-c3cnc(C(C)(O)[C@H]4CC[C@H](C(=O)O)C(C)(C)C4)s3)n2)c1 (stereo partly drawn) [Example 14-46, (1S,4S)-4-[1-hydroxy-1-(5-{6-[(4-methylpyridin-2-yl)amino]pyridin-2-yl}-1,3-thiazol-2-yl)ethyl]-2,2-dimethylcyclohexanecarboxylic acid]
IC50 [1]: ≤ 100 nM

SMILES: Cc1cc(Nc2cc(C(F)(F)F)ccn2)nc(-c2cnc(C(C)(O)C3CCC(C(=O)O)C(C)C3)s2)c1 (single isomer, unassigned) [Example 15-13, 4-{1-hydroxy-1-[5-(4-methyl-6-{[4-(trifluoromethyl)pyridin-2-yl]amino}pyridin-2-yl)-1,3-thiazol-2-yl]ethyl}-2-methylcyclohexanecarboxylic acid]
IC50 [1]: ≤ 100 nM

SMILES: Cc1cc(Nc2cc(C(F)(F)F)ccn2)nc(-c2cnc(C(C)(O)C3CCC(C(=O)O)C(C)C3)s2)c1 (single isomer, unassigned) [Example 15-10, 4-{1-hydroxy-1-[5-(4-methyl-6-{[4-(trifluoromethyl)pyridin-2-yl]amino}pyridin-2-yl)-1,3-thiazol-2-yl]ethyl}-2-methylcyclohexanecarboxylic acid]
IC50 [1]: ≤ 100 nM

SMILES: Cc1cc(Nc2cc(C(F)(F)F)ccn2)nc(-c2cnc(C(C)(O)C3CCC(C(=O)O)C(C)C3)s2)c1 (stereo not drawn) [Example 15-14, 4-{1-hydroxy-1-[5-(4-methyl-6-{[4-(trifluoromethyl)pyridin-2-yl]amino}pyridin-2-yl)-1,3-thiazol-2-yl]ethyl}-2-methylcyclohexanecarboxylic acid]
IC50 [1]: ≤ 100 nM

SMILES: Cc1cc(Nc2cc(C(F)(F)F)ccn2)nc(-c2cnc(C(C)(O)C3CCC(C(=O)O)C(C)C3)s2)c1 (single isomer, unassigned) [Example 15-11, 4-{1-hydroxy-1-[5-(4-methyl-6-{[4-(trifluoromethyl)pyridin-2-yl]amino}pyridin-2-yl)-1,3-thiazol-2-yl]ethyl}-2-methylcyclohexanecarboxylic acid]
IC50 [1]: ≤ 100 nM

SMILES: Cc1cc(Nc2cccc(-c3cnc(C(C)(O)[C@H]4CC[C@H](C(=O)O)CC4)s3)n2)ncc1F (single isomer, unassigned) [Example 6, trans-4-[(1R or 1S)-1-(5-{6-[(5-Fluoro-4-methylpyridin-2-yl)amino]pyridin-2-yl}-1,3-thiazol-2-yl)-1-hydroxyethyl]cyclohexanecarboxylic acid]
IC50 [1]: ≤ 100 nM

Continued, values first:

IC50 [1]: ≤ 100 nM
SMILES: Cc1cc(Nc2cc(C(F)(F)F)ccn2)nc(-c2cnc(C(C)(O)[C@H]3CC[C@H](C(=O)O)C(C)(C)C3)s2)c1 (stereo partly drawn) [Example 14-31, (1S,4S)-4-{1-hydroxy-1-[5-(4-methyl-6-{[4-(trifluoromethyl)pyridin-2-yl]amino}pyridin-2-yl)-1,3-thiazol-2-yl]ethyl}-2,2-dimethylcyclohexanecarboxylic acid]

IC50 [1]: ≤ 100 nM
SMILES: Cc1cc(Nc2cc(C(F)(F)F)ccn2)nc(-c2cnc(C(C)(O)C3CCC(C(=O)O)C(C)C3)s2)c1 (single isomer, unassigned) [Example 15-1, 4-{1-hydroxy-1-[5-(4-methyl-6-{[4-(trifluoromethyl)pyridin-2-yl]amino}pyridin-2-yl)-1,3-thiazol-2-yl]ethyl}-2-methylcyclohexanecarboxylic acid]

IC50 [1]: ≤ 100 nM
SMILES: Cc1cc(Nc2cc(C(F)(F)F)ccn2)nc(-c2cnc([C@](C)(O)[C@H]3CNC(=O)C3)s2)c1 [Example 14-56, (4R)-4-{(1R)-1-hydroxy-1-[5-(4-methyl-6-{[4-(trifluoromethyl)pyridin-2-yl]amino}pyridin-2-yl)-1,3-thiazol-2-yl]ethyl}pyrrolidin-2-one]

IC50 [1]: ≤ 100 nM
SMILES: COc1ccnc(Nc2cccc(-c3cnc(C(C)(O)[C@H]4CC[C@H](C(=O)O)C(C)(C)C4)s3)n2)c1 (stereo partly drawn) [Example 14-48, (1S,4S)-4-[1-hydroxy-1-(5-{6-[(4-methoxypyridin-2-yl)amino]pyridin-2-yl}-1,3-thiazol-2-yl)ethyl]-2,2-dimethylcyclohexanecarboxylic acid]

IC50 [1]: ≤ 100 nM
SMILES: Cc1ccnc(Nc2cc(C)cc(-c3cnc(C(C)(O)[C@H]4CC[C@H](C(=O)O)C(C)(C)C4)s3)n2)c1 (stereo partly drawn) [Example 14-33, (1S,4S)-4-[1-hydroxy-1-(5-{4-methyl-6-[(4-methylpyridin-2-yl)amino]pyridin-2-yl}-1,3-thiazol-2-yl)ethyl]-2,2-dimethylcyclohexanecarboxylic acid]

IC50 [2]: 3.1 nM | IC50 [1]: ≤ 100 nM
SMILES: CCC(O)(c1ncc(-c2cc(C)cc(Nc3cc(C4CC4)ccn3)n2)s1)[C@H]1CC[C@H](C(N)=O)CC1 (mixture of isomers) [Example 2, racemic mixture, trans-4-[1-(5-{6-[(4-cyclopropylpyridin-2-yl)amino]-4-methylpyridin-2-yl}-1,3-thiazol-2-yl)-1-hydroxypropyl]cyclohexanecarboxamide]

IC50 [2]: 0.5 nM | IC50 [1]: ≤ 100 nM
SMILES: Cc1cc(Nc2cc(C(F)F)ccn2)nc(-c2cnc(C(C)(O)[C@H]3CC[C@H](C(=O)O)CC3)s2)c1 (single isomer, unassigned) [Example 14-4, trans-4-{1-[5-(6-{[4-(difluoromethyl)pyridin-2-yl]amino}-4-methylpyridin-2-yl)-1,3-thiazol-2-yl]-1-hydroxyethyl}cyclohexanecarboxylic acid]

IC50 [1]: ≤ 100 nM
SMILES: Cc1cc(Nc2cc(C(F)(F)F)ccn2)nc(-c2cnc(C(C)(O)C3CCC(C(=O)O)C(C)C3)s2)c1 (single isomer, unassigned) [Example 15-7, 4-{1-hydroxy-1-[5-(4-methyl-6-{[4-(trifluoromethyl)pyridin-2-yl]amino}pyridin-2-yl)-1,3-thiazol-2-yl]ethyl}-2-methylcyclohexanecarboxylic acid]

IC50 [1]: ≤ 100 nM
SMILES: CC1(C)C[C@@H](C(C)(O)c2ncc(-c3cccc(Nc4cc(C(F)(F)F)ccn4)n3)s2)CC[C@@H]1C(=O)O (stereo partly drawn) [Example 14-45, (1S,4S)-4-{1-hydroxy-1-[5-(6-{[4-(trifluoromethyl)pyridin-2-yl]amino}pyridin-2-yl)-1,3-thiazol-2-yl]ethyl}-2,2-dimethylcyclohexanecarboxylic acid]

IC50 [1]: ≤ 100 nM
SMILES: Cc1cc(Nc2cc(C(F)(F)F)ccn2)nc(-c2cnc(C(C)(O)C3CCC(C(=O)O)C(C)C3)s2)c1 (single isomer, unassigned) [Example 15-2, 4-{1-hydroxy-1-[5-(4-methyl-6-{[4-(trifluoromethyl)pyridin-2-yl]amino}pyridin-2-yl)-1,3-thiazol-2-yl]ethyl}-2-methylcyclohexanecarboxylic acid]
